# Assay results: US20020187514A1 (priority 1999, published 2002)
# Columns and labels:
# Orphanin = biological target: T1, Orphanin (Homo sapiens, UniProt P41146); experiment: biochemical; type: binding; settings: read-out: Pass 1 (10^−5 M) % Inhibition
# T1 construct: expressed in transfected cells
# Adenosine Transporter = Adenosine Transporter (Homo sapiens, UniProt Q99808); experiment: biochemical; type: binding; settings: read-out: Pass 1 (10^−5 M) % Inhibition
# Adrenergic, Alpha 1A = Adrenergic, Alpha 1A (UniProt P43140); experiment: Adrenergic, Alpha 1A; [3H]-7-MeOxy-Prazosin; type: binding
# Adrenergic, Alpha 2C = biological target: T2, Adrenergic, Alpha 2C (Homo sapiens, UniProt P18825); experiment: Adrenergic, Alpha 2C (Human Recombinant); [3H]MK-912; type: binding; settings: read-out: Pass 1 (10^−5 M) % Inhibition
# T2 construct: expressed in transfected cells
# Adrenergic, Beta 1 = biological target: T3, Adrenergic, Beta 1 (Homo sapiens, UniProt P08588); experiment: Adrenergic, Beta 1 (Human Recombinant); [125I]Iodocyanopindolol; type: binding; settings: read-out: Pass 1 (10^−5 M) % Inhibition
# T3 construct: expressed in transfected cells
# [1] = biological target: Benzodiazepine, peripheral (Homo sapiens, UniProt P30536); experiment: biochemical; type: binding; settings: read-out: Pass 1 (10^−5 M) % Inhibition
# Cannabinoid, CB2 = biological target: T4, Cannabinoid, CB2 (Homo sapiens, UniProt P34972); experiment: Cannabinoid, CB2 (Human recombinant); [3H]-CP55940; type: binding; settings: read-out: Pass 1 (10^−5 M) % Inhibition
# T4 construct: expressed in transfected cells
# Clozapine = type: binding
# Dopamine Transporter = Dopamine Transporter (Cavia porcellus, UniProt H0WCX4); experiment: biochemical; type: binding, Guinea Pig
# Dopamine, D3 = biological target: T5, Dopamine, D3 (Rattus norvegicus, UniProt P19020); experiment: Dopamine, D3 (Rat Recombinant); [3H]7-OH-DPAT; type: binding; settings: read-out: Pass 1 (10^−5 M) % Inhibition
# T5 construct: expressed in transfected cells
# GABA-B = type: binding
# Histamine, H1 = biological target: T6, Histamine, H1 (Bos taurus, UniProt P30546); experiment: Histamine, H1; [3H]Pyrilamine; type: binding; settings: read-out: Pass 1 (10^−5 M) % Inhibition
# T6 construct: no other source notation after assay name denotes animal cell or animal tissue source; from tissue; host or cells: animal cell or animal tissue, not specified
# Muscarinic, M5 = biological target: T7, Muscarinic, M5 (Homo sapiens, UniProt P08912); experiment: biochemical; type: binding; settings: read-out: Pass 1 (10^−5 M) % Inhibition
# T7 construct: expressed in transfected cells
# [2] = tested on: Nicotinic (a-bungarotoxin insensitive); type: binding; settings: 10^−5 M
# Opiate, Delta 1 = Opiate, Delta 1 (UniProt P33533); type: binding
# Opiate, Kappa = biological target: T8, Opiate, Kappa (Homo sapiens, UniProt P41145); experiment: biochemical; type: binding; settings: read-out: Pass 1 (10^−5 M) % Inhibition
# T8 construct: expressed in transfected cells
# Opiate, Mu = biological target: T9, Opiate, Mu (Homo sapiens, UniProt P35372); experiment: biochemical; type: binding; settings: read-out: Pass 1 (10^−5 M) % Inhibition
# T9 construct: expressed in transfected cells
# Purinergic, P2Y = Purinergic, P2Y (Human); [35S]-ATPas; type: binding; settings: 10^−5 M
# Serotonin, 5HT1B = biological target: T10, Serotonin, 5HT1B (Rattus norvegicus, UniProt P28564); experiment: biochemical; type: binding; settings: read-out: Pass 1 (10^−5 M) % Inhibition
# T10 construct: no other source notation after assay name denotes animal cell or animal tissue source; from tissue; host or cells: animal cell or animal tissue, not specified
# Serotonin, 5HT1D = Serotonin, 5HT1D (Homo sapiens, UniProt P28221); experiment: biochemical; type: binding; settings: read-out: Pass 1 (10^−5 M) % Inhibition
# [3] = biological target: Calcium Channel, Type L (Benzothiazepine Site) (Rattus norvegicus, UniProt P22002); experiment: Calcium Channel, Type L (Benzothiazepine Site); [3H]Diltiazem, cis(+); type: binding; settings: read-out: Pass 1 (10^−5 M) % Inhibition
# [4] = biological target: Calcium Channel, Type L (Dihydropyridine Site) (Rattus norvegicus, UniProt P22002); experiment: Calcium Channel, Type L (Dihydropyridine Site); [3H]Nitrendipine; type: binding; settings: read-out: Pass 1 (10^−5 M) % Inhibition
# Sodium, Site 2 = type: binding
# Protein Kinase C, PDBu = type: binding
# Thromboxane A2 = biological target: T11, Thromboxane A2 (Homo sapiens, UniProt P21731); experiment: Thromboxane A2 (Human); [3H]SQ 29,548; type: binding; settings: read-out: Pass 1 (10^−5 M) % Inhibition
# T11 construct: from human cell lines; endogenous in cells
# [5] = tested on: Epidermal Growth Factor, EGF; experiment: Epidermal Growth Factor, EGF; [125I]EGF; type: binding; settings: 10^−5 M
# Angiotensin II, AT2 = type: binding; settings: 10^−5 M
# Bradykinin, BK2 = biological target: T12, Bradykinin, BK2 (Homo sapiens, UniProt P30411); experiment: Bradykinin, BK2 (Human recombinant); [3H]-Bradykinin; type: binding; settings: read-out: Pass 1 (10^−5 M) % Inhibition
# T12 construct: expressed in transfected cells
# Neurokinin, NK1 = type: binding; settings: 10^−5 M
# Neuropeptide, NPY1 = Neuropeptide, NPY1 (Homo sapiens, UniProt P25929); experiment: Neuropeptide, NPY1 (Human); [125I]PYY; type: binding; settings: read-out: Pass 1 (10^−5 M) % Inhibition
# [6] = tested on: Somatostatin, Non-selective; experiment: Somatostatin, Non-selective; [125]-Somatostatin-14 (Tyr11); type: binding; settings: 10^−5 M
# [7] = tested on: Vasoactive Intestine Peptide, Non-selective; type: binding; settings: 10^−5 M
# Vasopressin 1 = biological target: T13, Vasopressin 1 (Rattus norvegicus, UniProt P30560); experiment: biochemical; type: binding; settings: read-out: Pass 1 (10^−5 M) % Inhibition
# T13 construct: no other source notation after assay name denotes animal cell or animal tissue source; from tissue
# GABA Transaminase = experiment: GABA Transaminase; substrate [14C]-GABA; type: biochemical
# [8] = tested on: Glutamic Acid Decarboxylase; experiment: Glutamic Acid Decarboxylase; substrate [14C]Glutamic acid; type: biochemical; settings: 10^−5 M
# [9] = biological target: T14, Monoamine Oxidase B, Peripheral (Rattus norvegicus, UniProt P19643); experiment: Monoamine Oxidase B, Peripheral; substrate [14C]Phenylethylamine; type: biochemical; settings: read-out: Pass 1 (10^−5 M) % Inhibition
# T14 construct: no other source notation after assay name denotes animal cell or animal tissue source; from tissue
# [10] = biological target: Protein Phosphatase, PP2A (Homo sapiens, UniProt P67775); experiment: Protein Phosphatase, PP2A (Human); substrate DiFMUP; type: biochemical; settings: read-out: Pass 1 (10^−5 M) % Inhibition
# [11] = tested on: Protein Phosphatase, PP2B (Calcineurin); experiment: Protein Phosphatase, PP2B (Calcineurin); substrate pNPP; type: biochemical; settings: 10^−5 M
# [12] = biological target: T15, Protein Tyrosine Phosphatase, PTP-LAR-D1 (Homo sapiens, UniProt P10586); experiment: Protein Tyrosine Phosphatase, PTP-LAR-D1 (Human); substrate pNPP; type: biochemical; settings: read-out: Pass 1 (10^−5 M) % Inhibition
# T15 construct: PTP-LAR-D1
# [13] = tested on: Protein Tyrosine Phosphatase, PTP-Cell; experiment: Protein Tyrosine Phosphatase, PTP-Cell (Human); substrate pNPP; type: biochemical; settings: 10^−5 M
# [14] = reported in vivo pharmacology, cited from earlier work
# Chain of Dopamine Transporter (H0WCX4 1-619): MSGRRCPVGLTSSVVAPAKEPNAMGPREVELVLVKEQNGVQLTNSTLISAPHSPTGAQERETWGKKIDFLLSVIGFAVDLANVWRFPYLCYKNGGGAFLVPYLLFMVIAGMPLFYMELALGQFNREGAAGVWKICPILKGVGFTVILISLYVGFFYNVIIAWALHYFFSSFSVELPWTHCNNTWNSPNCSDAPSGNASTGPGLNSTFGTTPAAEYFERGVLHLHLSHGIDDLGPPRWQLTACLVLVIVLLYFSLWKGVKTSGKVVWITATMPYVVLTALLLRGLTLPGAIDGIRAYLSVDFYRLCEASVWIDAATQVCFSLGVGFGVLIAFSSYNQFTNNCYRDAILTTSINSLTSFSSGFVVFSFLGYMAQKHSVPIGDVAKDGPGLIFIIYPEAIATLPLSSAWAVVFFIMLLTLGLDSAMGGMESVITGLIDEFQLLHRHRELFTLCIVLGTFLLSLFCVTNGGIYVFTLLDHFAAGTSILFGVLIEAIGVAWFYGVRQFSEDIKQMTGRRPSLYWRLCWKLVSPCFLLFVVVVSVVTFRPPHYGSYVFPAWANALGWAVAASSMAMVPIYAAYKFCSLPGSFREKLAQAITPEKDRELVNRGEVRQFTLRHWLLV
# Chain of Protein Phosphatase, PP2A (P67775 whole entry): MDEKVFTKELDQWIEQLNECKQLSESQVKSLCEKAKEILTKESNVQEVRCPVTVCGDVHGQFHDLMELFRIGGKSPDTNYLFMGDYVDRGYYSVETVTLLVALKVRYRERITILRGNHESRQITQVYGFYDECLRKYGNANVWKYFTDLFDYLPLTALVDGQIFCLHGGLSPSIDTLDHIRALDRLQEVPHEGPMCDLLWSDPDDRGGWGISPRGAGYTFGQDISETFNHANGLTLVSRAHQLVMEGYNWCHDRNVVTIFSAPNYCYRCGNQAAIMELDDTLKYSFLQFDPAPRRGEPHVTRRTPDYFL
# T12 sequence (P30411 whole entry): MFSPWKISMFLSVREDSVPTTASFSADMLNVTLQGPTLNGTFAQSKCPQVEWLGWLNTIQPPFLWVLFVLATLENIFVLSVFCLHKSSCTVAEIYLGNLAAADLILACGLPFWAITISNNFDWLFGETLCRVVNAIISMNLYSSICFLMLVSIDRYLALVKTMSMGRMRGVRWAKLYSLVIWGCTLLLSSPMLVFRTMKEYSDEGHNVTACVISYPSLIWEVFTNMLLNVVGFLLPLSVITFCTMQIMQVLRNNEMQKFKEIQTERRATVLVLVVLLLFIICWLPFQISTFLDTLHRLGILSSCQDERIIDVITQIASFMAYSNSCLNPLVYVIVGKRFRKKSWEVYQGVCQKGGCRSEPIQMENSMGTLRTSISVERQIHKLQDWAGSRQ
# Chain of Benzodiazepine, peripheral (P30536 whole entry): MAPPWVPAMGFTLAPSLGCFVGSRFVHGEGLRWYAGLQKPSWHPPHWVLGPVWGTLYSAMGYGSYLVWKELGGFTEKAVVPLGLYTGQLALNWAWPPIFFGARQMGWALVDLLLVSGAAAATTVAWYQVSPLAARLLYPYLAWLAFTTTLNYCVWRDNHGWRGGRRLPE
# T13 sequence (P30560 whole entry): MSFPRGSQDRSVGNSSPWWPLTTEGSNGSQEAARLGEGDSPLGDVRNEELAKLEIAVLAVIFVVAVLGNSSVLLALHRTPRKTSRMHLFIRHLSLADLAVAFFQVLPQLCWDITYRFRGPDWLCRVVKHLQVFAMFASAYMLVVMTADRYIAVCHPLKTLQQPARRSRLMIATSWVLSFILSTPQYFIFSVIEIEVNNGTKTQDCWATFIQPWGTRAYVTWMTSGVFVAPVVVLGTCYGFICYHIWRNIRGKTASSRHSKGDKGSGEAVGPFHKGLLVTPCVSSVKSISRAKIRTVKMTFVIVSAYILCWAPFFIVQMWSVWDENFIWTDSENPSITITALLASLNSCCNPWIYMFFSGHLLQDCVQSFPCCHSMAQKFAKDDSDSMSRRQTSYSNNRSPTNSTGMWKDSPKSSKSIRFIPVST
# T10 sequence (P28564 whole entry): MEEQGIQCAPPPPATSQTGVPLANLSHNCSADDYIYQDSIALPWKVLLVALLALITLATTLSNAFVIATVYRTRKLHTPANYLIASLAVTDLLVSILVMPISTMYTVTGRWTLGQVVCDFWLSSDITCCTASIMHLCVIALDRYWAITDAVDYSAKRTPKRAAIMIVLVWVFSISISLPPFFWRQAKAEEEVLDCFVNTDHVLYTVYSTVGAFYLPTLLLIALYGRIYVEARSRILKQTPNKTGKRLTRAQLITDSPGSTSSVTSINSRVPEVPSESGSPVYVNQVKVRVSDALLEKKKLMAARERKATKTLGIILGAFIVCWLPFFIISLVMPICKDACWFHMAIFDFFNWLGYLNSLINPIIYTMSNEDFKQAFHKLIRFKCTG
# T1 sequence (P41146 whole entry): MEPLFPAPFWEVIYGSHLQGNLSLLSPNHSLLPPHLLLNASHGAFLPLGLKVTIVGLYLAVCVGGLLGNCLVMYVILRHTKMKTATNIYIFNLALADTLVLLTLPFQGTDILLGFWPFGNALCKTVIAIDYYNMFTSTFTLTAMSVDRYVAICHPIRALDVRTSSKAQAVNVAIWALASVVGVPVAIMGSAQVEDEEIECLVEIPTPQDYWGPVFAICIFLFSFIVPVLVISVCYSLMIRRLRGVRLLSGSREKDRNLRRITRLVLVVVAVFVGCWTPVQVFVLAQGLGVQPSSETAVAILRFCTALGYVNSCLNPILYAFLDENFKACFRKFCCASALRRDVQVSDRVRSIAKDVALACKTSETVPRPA
# Chain of Calcium Channel, Type L (Benzothiazepine Site) (P22002 whole entry, looked up): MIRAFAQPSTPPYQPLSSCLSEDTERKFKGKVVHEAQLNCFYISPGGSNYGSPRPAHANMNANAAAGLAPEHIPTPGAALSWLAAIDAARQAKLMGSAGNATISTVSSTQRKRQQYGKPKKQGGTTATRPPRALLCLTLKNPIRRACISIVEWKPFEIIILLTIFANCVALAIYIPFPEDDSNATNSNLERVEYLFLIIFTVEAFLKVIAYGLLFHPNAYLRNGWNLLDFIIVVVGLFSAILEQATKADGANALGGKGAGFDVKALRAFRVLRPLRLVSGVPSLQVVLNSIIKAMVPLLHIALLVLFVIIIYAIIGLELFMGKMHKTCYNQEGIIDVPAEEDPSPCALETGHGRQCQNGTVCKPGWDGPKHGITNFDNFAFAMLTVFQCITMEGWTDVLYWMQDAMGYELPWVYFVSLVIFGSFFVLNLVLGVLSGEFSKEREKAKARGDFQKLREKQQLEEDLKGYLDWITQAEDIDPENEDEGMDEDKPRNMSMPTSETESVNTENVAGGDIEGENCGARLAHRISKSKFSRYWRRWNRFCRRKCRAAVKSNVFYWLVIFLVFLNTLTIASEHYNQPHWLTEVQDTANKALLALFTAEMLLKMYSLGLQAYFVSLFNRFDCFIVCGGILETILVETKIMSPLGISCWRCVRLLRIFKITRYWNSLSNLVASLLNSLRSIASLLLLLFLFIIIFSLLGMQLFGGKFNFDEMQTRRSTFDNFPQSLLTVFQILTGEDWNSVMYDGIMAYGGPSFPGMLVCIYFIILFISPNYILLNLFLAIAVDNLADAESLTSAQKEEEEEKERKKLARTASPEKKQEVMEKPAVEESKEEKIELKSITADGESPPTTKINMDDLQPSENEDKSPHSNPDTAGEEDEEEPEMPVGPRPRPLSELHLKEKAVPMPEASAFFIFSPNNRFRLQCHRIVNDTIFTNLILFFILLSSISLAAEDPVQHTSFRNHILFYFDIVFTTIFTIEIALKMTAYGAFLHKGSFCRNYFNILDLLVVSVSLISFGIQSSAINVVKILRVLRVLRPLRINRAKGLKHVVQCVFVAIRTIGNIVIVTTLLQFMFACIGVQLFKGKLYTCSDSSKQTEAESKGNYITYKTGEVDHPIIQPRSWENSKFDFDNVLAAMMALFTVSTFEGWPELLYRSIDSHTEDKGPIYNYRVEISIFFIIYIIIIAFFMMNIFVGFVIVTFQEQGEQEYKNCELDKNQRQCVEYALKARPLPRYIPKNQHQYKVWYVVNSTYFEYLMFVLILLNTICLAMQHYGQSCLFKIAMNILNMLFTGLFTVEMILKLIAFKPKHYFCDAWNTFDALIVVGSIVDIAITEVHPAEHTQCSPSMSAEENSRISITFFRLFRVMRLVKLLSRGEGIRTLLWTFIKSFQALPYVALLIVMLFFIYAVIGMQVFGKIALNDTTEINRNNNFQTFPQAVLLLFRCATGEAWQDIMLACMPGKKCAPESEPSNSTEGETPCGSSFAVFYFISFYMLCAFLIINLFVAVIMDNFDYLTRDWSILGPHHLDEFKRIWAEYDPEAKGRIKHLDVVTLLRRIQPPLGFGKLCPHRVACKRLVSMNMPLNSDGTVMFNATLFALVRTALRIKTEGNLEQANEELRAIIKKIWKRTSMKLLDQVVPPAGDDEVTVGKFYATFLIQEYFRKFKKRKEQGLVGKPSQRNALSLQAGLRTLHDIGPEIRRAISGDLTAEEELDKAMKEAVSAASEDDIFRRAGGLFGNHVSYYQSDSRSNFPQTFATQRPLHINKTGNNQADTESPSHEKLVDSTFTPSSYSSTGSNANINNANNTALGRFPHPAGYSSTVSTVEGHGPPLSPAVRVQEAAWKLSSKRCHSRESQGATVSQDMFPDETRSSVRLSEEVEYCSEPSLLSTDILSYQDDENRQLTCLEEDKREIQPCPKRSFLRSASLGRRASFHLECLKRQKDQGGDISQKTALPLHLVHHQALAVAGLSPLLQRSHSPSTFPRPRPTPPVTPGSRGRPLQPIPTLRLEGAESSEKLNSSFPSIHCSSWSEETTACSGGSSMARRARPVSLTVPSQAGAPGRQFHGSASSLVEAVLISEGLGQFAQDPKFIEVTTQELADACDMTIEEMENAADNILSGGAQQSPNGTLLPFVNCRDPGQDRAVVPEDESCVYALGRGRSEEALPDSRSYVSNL
# Chain of Calcium Channel, Type L (Dihydropyridine Site) (P22002 whole entry, looked up): as above
structure (smiles),measurement,setting,value
COC(=O)[C@H]1[C@@H](OC(=O)c2ccccc2)C[C@@H]2CC[C@H]1N2C [cocaine],inhibition at 10 µM,Orphanin,32.3%
same,inhibition at 10 µM,Adenosine Transporter,16.5%
same,Pass 1 (10^−5 M) % Inhibition,"Adrenergic, Alpha 1A",−1.18%
same,inhibition at 10 µM,"Adrenergic, Alpha 2C",-5.94%
same,inhibition at 10 µM,"Adrenergic, Beta 1",11.7%
same,inhibition at 10 µM,[1],0.51%
same,inhibition at 10 µM,"Cannabinoid, CB2",0.78%
same,Pass 1 (10^−5 M) % Inhibition,Clozapine,1.37%
same,Ki,Dopamine Transporter,321 nM
same,inhibition at 10 µM,Dopamine Transporter; read-out: Pass 1 (10^−5 M) % Inhibition,91.4%
same,inhibition at 10 µM,"Dopamine, D3",30.2%
same,Pass 1 (10^−5 M) % Inhibition,GABA-B,24.90%
same,inhibition at 10 µM,"Histamine, H1",-19.7%
same,inhibition at 10 µM,"Muscarinic, M5",6.01%
same,Pass 1 (10^−5 M) % Inhibition,[2],12.28%
same,Pass 1 (10^−5 M) % Inhibition,"Opiate, Delta 1",2.51%
same,inhibition at 10 µM,"Opiate, Kappa",1.87%
same,inhibition at 10 µM,"Opiate, Mu",3.08%
same,Pass 1 (10^−5 M) % Inhibition,"Purinergic, P2Y",16.43%
same,inhibition at 10 µM,"Serotonin, 5HT1B",3.31%
same,inhibition at 10 µM,"Serotonin, 5HT1D",3.12%
same,inhibition at 10 µM,[3],20.3%
same,inhibition at 10 µM,[4],10.2%
same,Pass 1 (10^−5 M) % Inhibition,"Sodium, Site 2",36.80%
same,Pass 1 (10^−5 M) % Inhibition,"Protein Kinase C, PDBu",−4.44%
same,inhibition at 10 µM,Thromboxane A2,22.1%
same,Pass 1 (10^−5 M) % Inhibition,[5],10.05%
same,Pass 1 (10^−5 M) % Inhibition,"Angiotensin II, AT2",5.85%
same,inhibition at 10 µM,"Bradykinin, BK2",4.48%
same,Pass 1 (10^−5 M) % Inhibition,"Neurokinin, NK1",−1.72%
same,inhibition at 10 µM,"Neuropeptide, NPY1",26.6%
same,Pass 1 (10^−5 M) % Inhibition,[6],−3.54%
same,Pass 1 (10^−5 M) % Inhibition,[7],30.71%
same,inhibition at 10 µM,Vasopressin 1,0.98%
same,Pass 1 (10^−5 M) % Inhibition,GABA Transaminase,25.43%
same,Pass 1 (10^−5 M) % Inhibition,[8],−1.39%
same,inhibition at 10 µM,[9],-22.8%
same,inhibition at 10 µM,[10],15.3%
same,Pass 1 (10^−5 M) % Inhibition,[11],−10.37%
same,inhibition at 10 µM,[12],24.4%
same,Pass 1 (10^−5 M) % Inhibition,[13],−17.63%
same,effects of high dosages,[14]; high dosages,"euphoria, involuntary motor activity, stereotypic behavior, paranoia, and irritability and increased risk of violence"
same,effect on heart rate and blood pressure,[14],dosage dependent increase in heart rate and blood pressure
